Calls of active or inactive are those of the source.
Legend:
[1] = A cytotoxicity screen of small molecule inhibitors of the PhoP region in Salmonella typhi identified in the primary screen. [Related pubchem assays: 1850, 1864, 1985 ]; assay type: functional
[2] = Luminescence Cell-Based Dose Confirmation HTS to Identify Activators of 5'UTR Stem-Loop Driven Alpha-Synuclein mRNA Translation in H4 Neuroglioblastoma Cells. [Related pubchem assays: 1829 (Project Summary), 1814 (Primary HTS)]; assay type: functional
[3] = Luminescence Cell-Based Dose Response to Identify Activators of Luciferase Translation or Activity in H4-C Neuroglioblastoma Cells. [Related pubchem assays: 1829 (Project Summary), 1814 (Primary HTS)]; assay type: functional
[4] = Luminescence Cell-Based Dose Response HTS to Identify Activators of Luciferase Translation or Activity in H4 […] Cells. [Related pubchem assays: 1829 (Project Summary), 1814 (Primary HTS)]; assay type: functional
[5] = Luminescence Cell-Based Dose Confirmation to Identify Activators of 5'UTR Stem-Loop Driven Alpha-Synuclein mRNA Translation in H4 Neuroglioblastoma Cells. [Related pubchem assays: 1829 (Project Summary), 1814 (Primary HTS)]; assay type: functional
H4 = test: Luminescence Cell-Based Dose Response HTS to Identify Activators of 5'UTR Stem-Loop Driven Prion Protein mRNA Translation in H4 Neuroglioblastoma Cells. [Related pubchem assays: 1829 (Project Summary), 1814 (Primary HTS)]; assay type: functional; conditions: Homo sapiens
[6] = Luminescence Cell-Based Dose Response to Identify Activators of 5'UTR Stem-Loop Driven Prion Protein mRNA Translation in H4-C Neuroglioblastoma Cells. [Related pubchem assays: 1829 (Project Summary), 1814 (Primary HTS)]; assay type: functional
Estrogen receptor = biological target: T1, Estrogen receptor (Homo sapiens, UniProt P03372);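 also: potency for inhibiting coactivator peptide recruitment to the receptor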
T1 sequence (P03372 whole entry): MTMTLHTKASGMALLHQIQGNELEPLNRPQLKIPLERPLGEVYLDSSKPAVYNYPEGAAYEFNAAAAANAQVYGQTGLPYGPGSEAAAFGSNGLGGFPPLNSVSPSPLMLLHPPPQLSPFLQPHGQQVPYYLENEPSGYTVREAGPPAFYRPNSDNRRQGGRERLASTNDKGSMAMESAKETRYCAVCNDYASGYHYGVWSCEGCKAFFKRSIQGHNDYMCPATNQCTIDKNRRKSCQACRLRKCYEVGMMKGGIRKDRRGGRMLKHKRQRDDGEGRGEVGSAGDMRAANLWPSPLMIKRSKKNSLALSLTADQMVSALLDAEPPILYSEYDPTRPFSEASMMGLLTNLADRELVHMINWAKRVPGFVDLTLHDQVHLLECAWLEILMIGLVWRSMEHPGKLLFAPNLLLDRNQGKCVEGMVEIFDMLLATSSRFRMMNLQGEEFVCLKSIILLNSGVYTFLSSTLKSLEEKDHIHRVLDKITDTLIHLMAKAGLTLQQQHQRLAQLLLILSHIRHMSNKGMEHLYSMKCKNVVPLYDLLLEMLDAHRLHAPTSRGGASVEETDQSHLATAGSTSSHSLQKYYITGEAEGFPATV

[7] = Luminescence-based dose response cell-based high throughput screening assay for cytotoxic compounds using the IEC-6 intestinal epithelial cell line. [Related pubchem assays: 1858 (Summary AID.), 1825 (Counterscreen.), 1907 (Confirmation screen.)]; assay type: functional
[8] = biological target: T2, Carboxy-terminal domain RNA polymerase II polypeptide A small phosphatase 1 (Homo sapiens, UniProt Q9GZU7); test: CTDSP1 inhibitors, concentration-response, biochemical, absorbance readout, ultra-high-throughput screen actives (AID 540297); assay type: functional
T2 sequence (Q9GZU7 whole entry): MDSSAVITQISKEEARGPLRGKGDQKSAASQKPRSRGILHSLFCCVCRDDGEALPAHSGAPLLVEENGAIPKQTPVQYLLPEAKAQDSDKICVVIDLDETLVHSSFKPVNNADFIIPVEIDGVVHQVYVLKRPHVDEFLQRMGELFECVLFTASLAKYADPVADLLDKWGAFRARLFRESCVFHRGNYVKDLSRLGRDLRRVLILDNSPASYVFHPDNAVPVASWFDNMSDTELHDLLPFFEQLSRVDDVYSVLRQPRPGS

[9] = viability of uninfected HEp-2 cells – cell-based, HTS, cytotoxicity control for RSV inhibitor project, dose response (AID 2410); assay type: functional; conditions: human respiratory syncytial virus
[10] = CCR5-tropic HIV-1 fusion blockers – cell-based, CCR5-tropic Env, dose response (AID 2279); assay type: functional
[11] = biological target: T3, Heat shock factor protein 1 (Mus musculus, UniProt P38532); test: decrease of HSF1-responsive luciferase luminescence – cell-based, NIH3T3, dose retest, confirmation (AID 2382); assay type: functional;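 also: NIH3T3 fibroblasts with HSF1-driven luciferase reporter stressed by proteasome inhibitor MG132; luminescence from HSF1-driven luciferase expression after 8 hours of MG132 stress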
T3 sequence (P38532 whole entry): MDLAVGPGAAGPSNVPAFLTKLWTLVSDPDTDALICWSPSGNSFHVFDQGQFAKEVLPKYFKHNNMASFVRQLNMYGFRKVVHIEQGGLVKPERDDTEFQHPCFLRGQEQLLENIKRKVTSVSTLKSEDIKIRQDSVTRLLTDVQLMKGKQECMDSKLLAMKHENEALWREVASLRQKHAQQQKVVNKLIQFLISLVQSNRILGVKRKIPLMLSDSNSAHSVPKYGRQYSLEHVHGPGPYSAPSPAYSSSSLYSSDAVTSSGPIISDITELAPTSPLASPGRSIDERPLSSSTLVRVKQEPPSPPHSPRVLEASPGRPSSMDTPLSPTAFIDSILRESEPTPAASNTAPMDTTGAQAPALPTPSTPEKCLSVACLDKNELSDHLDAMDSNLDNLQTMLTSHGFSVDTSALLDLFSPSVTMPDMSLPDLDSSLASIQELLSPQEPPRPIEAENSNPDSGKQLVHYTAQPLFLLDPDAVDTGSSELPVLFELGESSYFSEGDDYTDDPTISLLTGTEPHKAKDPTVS

[12] = A Cell Based Secondary Assay To Explore Cytotoxicity of Compounds that Sensitize Mycobacterium Tuberculosis to Beta-Lactam Antibiotics.; assay type: functional
[13] = biological target: T4, Mannose-6-phosphate isomerase (Homo sapiens, UniProt P34949); test: MPI inhibition at elevated mannose 6-phosphate – biochemical, fluorescence intensity, high mannose 6-phosphate, primary screen (AID 1220)
T4 sequence (P34949 whole entry): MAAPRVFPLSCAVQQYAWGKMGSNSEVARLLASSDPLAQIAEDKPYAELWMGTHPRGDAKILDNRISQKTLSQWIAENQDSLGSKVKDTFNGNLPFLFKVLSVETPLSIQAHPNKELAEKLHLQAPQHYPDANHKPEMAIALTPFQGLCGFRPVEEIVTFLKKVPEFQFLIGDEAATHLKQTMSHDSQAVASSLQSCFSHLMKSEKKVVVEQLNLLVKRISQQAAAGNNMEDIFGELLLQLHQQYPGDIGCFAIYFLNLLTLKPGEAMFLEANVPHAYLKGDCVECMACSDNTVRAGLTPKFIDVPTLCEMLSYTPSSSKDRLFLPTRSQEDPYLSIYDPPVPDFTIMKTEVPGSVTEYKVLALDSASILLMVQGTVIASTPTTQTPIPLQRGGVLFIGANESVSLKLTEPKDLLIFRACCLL

[14] = biological target: T5, Calpain-2 catalytic subunit (Sus scrofa, UniProt P43367); test: m-calpain protease blockers, concentration series – biochemical, fluorogenic peptide substrate, dose response (AID 1420); assay type: functional
T5 sequence (P43367 whole entry): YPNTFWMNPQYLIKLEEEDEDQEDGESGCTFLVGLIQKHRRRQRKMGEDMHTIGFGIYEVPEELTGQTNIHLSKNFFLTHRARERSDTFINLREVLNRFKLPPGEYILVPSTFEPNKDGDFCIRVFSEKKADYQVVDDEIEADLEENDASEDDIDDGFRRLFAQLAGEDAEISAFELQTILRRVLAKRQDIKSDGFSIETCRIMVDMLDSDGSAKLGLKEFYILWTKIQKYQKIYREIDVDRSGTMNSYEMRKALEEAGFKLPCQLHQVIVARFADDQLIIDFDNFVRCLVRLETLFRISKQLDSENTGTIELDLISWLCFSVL

[15] = biological target: FAD-linked sulfhydryl oxidase ALR (Homo sapiens, UniProt P55789); test: ALR-catalysed DTT oxidation blockers – biochemical, H2O2 detection, luminescence, cherry-pick, dose response (AID 493248)
Chain of FAD-linked sulfhydryl oxidase ALR (P55789 whole entry): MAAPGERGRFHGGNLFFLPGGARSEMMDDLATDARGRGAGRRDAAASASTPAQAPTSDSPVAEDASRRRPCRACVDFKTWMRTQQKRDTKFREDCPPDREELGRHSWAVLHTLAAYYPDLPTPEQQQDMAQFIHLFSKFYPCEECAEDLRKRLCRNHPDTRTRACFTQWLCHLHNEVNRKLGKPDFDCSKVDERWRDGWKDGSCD

[16] = viability of HCT116 lacking mutant beta-catenin – cell-based, human colon tumor, dose response (AID 1045); assay type: functional;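 also: HCT116 colon tumor cells with beta catenin knocked out; cells exposed to compound for 60 hours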
[17] = viability of PTEN-deleted HCT116 cells – cell-based, HCT116 PTEN knockout, dose response (AID 1047); assay type: functional;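 also: HCT116 colon tumor cells with PTEN knocked out; cells exposed to compound for 60 hours before readout; potency for loss of cell viability measured by luminescence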
Streptococcus = test: GAS UMAA2166 growth inhibition – luminescence, BacTiterGlo, counter-screen for streptokinase expression inhibitor project, dose response (AID 1915); assay type: functional, organism-based;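 also: potency for reduction of bacterial viability or growth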
INS1 = test: INS-1E survival protection against cytokine death – cell-based, luminescence, retest, dose response (AID 449756); assay type: functional; conditions: Rattus norvegicus;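 also: cell death triggered by IL-1 beta plus TNF-alpha plus IFN-gamma mixture; protective hits raise ATP signal compared with cytokine alone wells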
[18] = system: Streptococcus sp. 'group A'; test: Streptococcus pyogenes SK(-)GAS viability under kanamycin – luminescence, BacTiterGlo, confirmation, counter-screen for streptokinase expression inhibitor project, dose response (AID 1900); assay type: functional, organism-based
Aminopeptidase N = biological target: T6, Aminopeptidase N (Plasmodium falciparum FcB1/Columbia, UniProt O96935); test: malaria alanyl aminopeptidase activity blockers – biochemical, fluorogenic H-Leu-NHMec substrate, 1536-well (AID 1445); parameters: species or system Plasmodium falciparum 3D7, 3D7
T6 sequence (O96935 whole entry): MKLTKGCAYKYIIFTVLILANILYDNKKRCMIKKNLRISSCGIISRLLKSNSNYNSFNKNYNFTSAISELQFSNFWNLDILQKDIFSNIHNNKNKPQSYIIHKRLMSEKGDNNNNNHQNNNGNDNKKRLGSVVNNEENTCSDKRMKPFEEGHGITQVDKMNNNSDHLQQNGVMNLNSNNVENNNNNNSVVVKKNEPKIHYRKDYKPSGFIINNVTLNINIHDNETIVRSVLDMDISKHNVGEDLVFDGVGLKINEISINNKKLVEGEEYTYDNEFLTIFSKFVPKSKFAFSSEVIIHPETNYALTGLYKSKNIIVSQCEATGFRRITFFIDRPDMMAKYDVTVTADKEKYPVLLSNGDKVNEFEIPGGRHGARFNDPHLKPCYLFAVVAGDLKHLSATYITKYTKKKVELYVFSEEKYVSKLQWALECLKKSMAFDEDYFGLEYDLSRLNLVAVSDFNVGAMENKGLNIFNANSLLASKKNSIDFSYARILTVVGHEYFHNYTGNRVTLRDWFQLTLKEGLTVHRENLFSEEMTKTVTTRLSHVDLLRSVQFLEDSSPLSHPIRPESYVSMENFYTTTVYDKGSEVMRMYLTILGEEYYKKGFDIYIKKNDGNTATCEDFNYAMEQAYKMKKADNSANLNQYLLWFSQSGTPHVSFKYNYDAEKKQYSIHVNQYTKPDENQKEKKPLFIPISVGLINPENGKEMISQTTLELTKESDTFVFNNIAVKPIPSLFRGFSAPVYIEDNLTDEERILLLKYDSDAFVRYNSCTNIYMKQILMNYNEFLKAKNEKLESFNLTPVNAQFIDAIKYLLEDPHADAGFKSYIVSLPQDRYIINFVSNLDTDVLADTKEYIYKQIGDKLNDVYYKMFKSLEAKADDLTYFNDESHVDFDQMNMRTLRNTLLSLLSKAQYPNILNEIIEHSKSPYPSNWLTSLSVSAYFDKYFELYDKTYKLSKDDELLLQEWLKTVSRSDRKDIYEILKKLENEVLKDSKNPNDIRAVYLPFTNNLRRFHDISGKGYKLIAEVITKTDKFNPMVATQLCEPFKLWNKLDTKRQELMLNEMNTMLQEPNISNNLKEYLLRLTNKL

Genome polyprotein = Genome polyprotein (dengue virus type 2, UniProt P29990); test: flavivirus cap methylation enzyme inhibition – biochemical, confirmation dose response, primary screen (AID 588689); assay type: functional
Chain of Genome polyprotein (P29990 2492-3391 limits assumed): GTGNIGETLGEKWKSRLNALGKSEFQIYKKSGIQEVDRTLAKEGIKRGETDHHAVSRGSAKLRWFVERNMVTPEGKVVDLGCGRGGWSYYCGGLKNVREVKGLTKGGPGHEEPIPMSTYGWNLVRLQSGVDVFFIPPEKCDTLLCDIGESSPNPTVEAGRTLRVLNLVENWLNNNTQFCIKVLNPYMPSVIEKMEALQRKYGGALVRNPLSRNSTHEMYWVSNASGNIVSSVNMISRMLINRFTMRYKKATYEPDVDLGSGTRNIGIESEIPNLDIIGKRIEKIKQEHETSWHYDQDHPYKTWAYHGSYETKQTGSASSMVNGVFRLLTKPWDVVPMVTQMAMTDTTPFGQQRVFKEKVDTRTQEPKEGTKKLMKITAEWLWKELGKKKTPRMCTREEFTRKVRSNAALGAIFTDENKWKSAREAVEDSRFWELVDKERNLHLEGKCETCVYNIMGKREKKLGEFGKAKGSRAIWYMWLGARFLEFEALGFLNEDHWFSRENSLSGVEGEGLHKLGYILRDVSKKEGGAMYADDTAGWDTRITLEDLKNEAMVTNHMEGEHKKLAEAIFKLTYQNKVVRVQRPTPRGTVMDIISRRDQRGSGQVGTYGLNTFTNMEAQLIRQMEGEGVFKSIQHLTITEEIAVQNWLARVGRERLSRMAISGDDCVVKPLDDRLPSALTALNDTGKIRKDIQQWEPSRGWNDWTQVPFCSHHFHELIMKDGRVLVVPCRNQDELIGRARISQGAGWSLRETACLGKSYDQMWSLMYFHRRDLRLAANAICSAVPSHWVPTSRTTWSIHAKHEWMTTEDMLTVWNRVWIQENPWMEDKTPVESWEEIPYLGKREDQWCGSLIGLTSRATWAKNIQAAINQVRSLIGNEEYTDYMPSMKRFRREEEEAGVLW

Vero = test: viability of Vero cells under compound – cytotoxicity control for flavivirus capping enzyme inhibitors (AID 588742); assay type: functional; conditions: Chlorocebus sabaeus

SMILES: CCN=C(S)Nc1cccc(S(=O)(=O)Nc2ccccc2OC)c1
- EC50 [1]: > 50 µM (active)

SMILES: Cc1cc2nc(SCCN3CCOCC3)[nH]c2cc1C
- EC50 [2]: < 0.1 µM (active)
- EC50 [3]: 0.338 µM (active)
- EC50 [4]: 1.88 µM (active)
- EC50 [5]: 0.345 µM (active)
- EC50 (H4): 0.22 µM (active)
- EC50 [6]: 0.61 µM (active)

SMILES: COc1cccc(-c2nnc(NC(=O)Cc3cccs3)s2)c1
- IC50 (Estrogen receptor): 19.1 µM (active)

SMILES: CC(=O)c1c(N2CCN(c3cccc(Cl)c3)CC2)nc(=S)n(-c2ccccc2)c1C
- EC50 [1]: > 50 µM (active)

SMILES: OC1=C2C(=Nc3cc4c(cc3C2c2ccc(F)cc2)OCCO4)CO1 (configuration not stated)
- IC50 [7]: 0.0539 µM (active)

SMILES: COc1ccc(N(C(=O)c2cccnc2)S(=O)(=O)c2cccc([N+](=O)[O-])c2)cc1
- EC50 [1]: > 50 µM (active)

SMILES: COc1cc(/C=C2\C(=N)N3N=C(S(C)(=O)=O)SC3=NC2=O)ccc1OCCOc1ccccc1C
- IC50 [8]: 3.51 µM (active)
- CC50 [9]: 26.3 µM (active)
- IC50 [10]: 28.5 µM (active)

SMILES: CCn1c(C)cc(/C=C2/NC(=O)N(c3ccccc3)C2=O)c1C
- EC50 [3]: 0.236 µM (active)
- EC50 [4]: < 0.1 µM (active)
- EC50 [11]: > 195 µM (not active)
- EC50 [5]: 0.307 µM (active)
- EC50 (H4): > 120 µM (not active)
- EC50 [6]: 0.505 µM (active)

SMILES: O=C(CCNc1ccccc1)c1cccc([N+](=O)[O-])c1
- CC50 [12]: 25.6 µM (active)
- IC50 [13]: 39.5 µM (active)
- IC50 [14]: 14.1 µM (not active)
- AC50 [15]: 5.58 µM (active)

SMILES: C/C(=N/NC(=O)c1cccs1)c1c(C)[nH]n(-c2nc3ccccc3s2)c1=O
- CC50 [12]: 25.8 µM (active)
- EC50 [16]: 10.9 µM (active)
- EC50 [17]: 11.2 µM (active)
- EC50 (Streptococcus): 9.42 µM (active)
- AC50 (INS1): 7.34 µM (active)
- EC50 [18]: 5.77 µM (active)

SMILES: CSc1nnc(-c2ccccc2/N=C/c2c(C)nn(-c3ccc4ccccc4c3)c2O)c(O)n1
- EC50 [2]: 9.56 µM (active)
- IC50 (Aminopeptidase N): 31.9 µM (active)
- IC50 [10]: 3.61 µM (active)
- EC50 [4]: 8.3 µM (active)
- IC50 (Genome polyprotein): 37.5 µM (active)
- EC50 (H4): 46.3 µM (active)
- CC50 (Vero): > 40 µM (active)
